Measurements published in patent US20100010219A1, “METHOD FOR PRODUCING PYRROLIDINE COMPOUND” (JAPAN TOBACCO INC., priority 2006, published 2010).
Structures can show the parent of a compound that is named as a salt.

What follows are molecules tested against T1, human HSD-1 (recombinant HSD-1) (Homo sapiens, UniProt P28845) (assay: HSD-1 activity inhibitory action in vitro (SPA, conversion of cortisone to cortisol)). Details: recombinant human HSD-1 expressed using baculovirus system; 10 nM 3H cortisone, 500 μM NADPH; room temperature 90 to 120 min; read-out: hHSD1 (IC50 (nM)).
T1 construct: made in house
Type: biochemical

T1 sequence (P28845 whole entry): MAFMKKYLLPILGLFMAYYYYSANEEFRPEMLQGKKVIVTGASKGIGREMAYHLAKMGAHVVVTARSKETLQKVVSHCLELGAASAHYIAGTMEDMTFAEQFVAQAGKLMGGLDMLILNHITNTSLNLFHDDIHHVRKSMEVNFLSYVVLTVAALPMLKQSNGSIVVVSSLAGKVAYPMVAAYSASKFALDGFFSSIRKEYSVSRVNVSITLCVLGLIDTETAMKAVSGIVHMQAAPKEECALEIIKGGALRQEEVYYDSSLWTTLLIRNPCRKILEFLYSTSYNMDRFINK

IC50 [nM]	Compound
< 30	CC1(c2c(C(=O)N3CCC(c4cccnc4)C3)cnn2C2CCN(C(=O)N3CCc4ccccc43)CC2)CC1 (stereo not drawn) [Example 148, 1-{1-[1-(2,3-dihydroindole-1-carbonyl)piperidin-4-yl]-5-(1-methylcyclopropyl)-1H-pyrazole-4-carbonyl}-3-(pyridin-3-yl)pyrrolidine]
< 30	CC1(c2c(C(=O)N3CCC(c4cccnc4)C3)cnn2C2CCN(C(=O)N3CCOc4ccccc43)CC2)CC1 (stereo not drawn) [Example 149]
< 30	O=C(Nc1ccc(Cl)nc1Cl)N1CCC(n2ncc(C(=O)N3CCC(c4ccccc4C(F)(F)F)C3)c2C2CC2)CC1 (stereo not drawn) [Example 150, 1-{5-cyclopropyl-1-[1-(2,6-dichloropyridin-3-ylcarbamoyl)piperidin-4-yl]-1H-pyrazole-4-carbonyl}-3-(2-trifluoromethylphenyl)pyrrolidine]
< 30	CC1(c2c(C(=O)N3CCC(c4cccnc4)C3)cnn2C2CCN(C(=O)N3CCCCc4ccccc43)CC2)CC1 (stereo not drawn) [Example 151, 1-{5-(1-methylcyclopropyl)-1-[1-(2,3,4,5-tetrahydrobenzo[b]azepine-1-carbonyl)piperidin-4-yl]-1H-pyrazole-4-carbonyl}-3-(pyridin-3-yl)pyrrolidine]
< 30	CC(C)(CC(=O)N1CCC(n2ncc(C(=O)N3CCC(c4ccccc4C(F)(F)F)C3)c2C2CC2)CC1)C(=O)O (stereo not drawn) [Example 154, 1-{1-[1-(3-carboxy-3-methyl-butyryl)piperidin-4-yl]-5-cyclopropyl-1H-pyrazole-4-carbonyl}-3-(2-trifluoromethylphenyl)pyrrolidine]
< 30	O=C(COc1ccccc1)N1CCC(n2ncc(C(=O)N3CCC(c4cccnc4)C3)c2C2CC2)CC1 (stereo not drawn) [Example 155, 1-{5-cyclopropyl-1-[1-(2-phenoxyacetyl)piperidin-4-yl]-1H-pyrazole-4-carbonyl}-3-(pyridin-3-yl)pyrrolidine]
< 30	O=C(c1cccc(Cl)c1)N1CCC(n2ncc(C(=O)N3CCC(c4cccnc4)C3)c2C2CC2)CC1 (stereo not drawn) [Example 156, 1-{1-[1-(3-chlorobenzoyl)piperidin-4-yl]-5-cyclopropyl-1H-pyrazole-4-carbonyl}-3-(pyridin-3-yl)pyrrolidine]
< 30	O=C(c1ccccc1Cl)N1CCC(n2ncc(C(=O)N3CCC(c4cccnc4)C3)c2C2CC2)CC1 (stereo not drawn) [Example 157, 1-{1-[1-(2-chlorobenzoyl)piperidin-4-yl]-5-cyclopropyl-1H-pyrazole-4-carbonyl}-3-(pyridin-3-yl)pyrrolidine]
< 30	O=C(O)C(=O)N1CCC(n2ncc(C(=O)N3CCC(c4ccccc4C(F)(F)F)C3)c2C2CC2)CC1 (stereo not drawn) [Example 158, 1-[5-cyclopropyl-1-(1-oxalylpiperidin-4-yl)-1H-pyrazole-4-carbonyl]-3-(2-trifluoromethylphenyl)pyrrolidine]
< 30	NC(=O)c1ccc(N2CCC(n3ncc(C(=O)N4CCC(c5ccccc5C(F)(F)F)C4)c3C3CC3)CC2)cc1 (stereo not drawn) [Example 165, 1-{1-[1-(4-carbamoylphenyl)piperidin-4-yl]-5-cyclopropyl-1H-pyrazole-4-carbonyl}-3-(2-trifluoromethylphenyl)pyrrolidine]

More lines, now with the values behind:

Compound	IC50 [nM]
O=C(Nc1ccccc1F)N1CCC(n2ncc(C(=O)N3CC[C@@H](c4ccccc4C(F)(F)F)C3)c2C2CC2)CC1 [Example 124, 1-{5-cyclopropyl-1-[1-(2-fluorophenylcarbamoyl)piperidin-4-yl]-1H-pyrazole-4-carbonyl}-[(S)-3-(2-trifluoromethylphenyl)]pyrrolidine]	< 30
CC(C)NC(=O)N1CCC(n2ncc(C(=O)N3CC[C@@H](c4ccccc4C(F)(F)F)C3)c2C2CC2)CC1 [Example 125, 1-{5-cyclopropyl-1-[1-(1-isopropylcarbamoyl)piperidin-4-yl]-1H-pyrazole-4-carbonyl}-[(S)-3-(2-trifluoromethylphenyl)]pyrrolidine]	< 30
CC1(NC(=O)N2CCC(n3ncc(C(=O)N4CC[C@@H](c5ccccc5C(F)(F)F)C4)c3C3CC3)CC2)CC1 [Example 126, 1-{5-cyclopropyl-1-[1-(1-methylcyclopropylcarbamoyl)piperidin-4-yl]-1H-pyrazole-4-carbonyl}-[(S)-3-(2-trifluoromethylphenyl)]pyrrolidine]	< 30
O=C(c1cnn(C2CCN(c3cnccn3)CC2)c1C1CC1)N1CC[C@@H](c2ccccc2C(F)(F)F)C1 [Example 129, 1-[5-cyclopropyl-1-(1-pyrazin-2-ylpiperidin-4-yl)-1H-pyrazole-4-carbonyl]-[(S)-3-(2-trifluoromethylphenyl)]pyrrolidine hydrochloride]	< 30
NC(=O)[C@H]1CC[C@H](n2ncc(C(=O)N3CC[C@@H](c4ccccc4C(F)(F)F)C3)c2C2CC2)CC1 [Example 130, 1-[1-(trans-4-carbamoylcyclohexyl)-5-cyclopropyl-1H-pyrazole-4-carbonyl]-[(S)-3-(2-trifluoromethylphenyl)]pyrrolidine]	< 30
NC(=O)N[C@H]1CC[C@H](n2ncc(C(=O)N3CC[C@@H](c4ccccc4C(F)(F)F)C3)c2C2CC2)CC1 [Example 131, 1-[5-cyclopropyl-1-(trans-4-ureidocyclohexyl)-1H-pyrazole-4-carbonyl]-[(S)-3-(2-trifluoromethylphenyl)]pyrrolidine]	< 30
O=C(c1cnn([C@H]2CC[C@H](c3nnn[nH]3)CC2)c1C1CC1)N1CC[C@@H](c2ccccc2C(F)(F)F)C1 [Example 132, 1-{5-cyclopropyl-1-[trans-4-(1H-tetrazol-5-yl)cyclohexyl]-1H-pyrazole-4-carbonyl}-[(S)-3-(2-trifluoromethylphenyl)]pyrrolidine]	< 30
CC1(c2c(C(=O)N3CCC(c4cccnc4)C3)cnn2C2CCN(C(=O)Nc3ccc(C(F)(F)F)cc3)CC2)CC1 (stereo not drawn) [Example 133, 1-{5-(1-methylcyclopropyl)-1-[1-(4-trifluoromethylphenylcarbamoyl)piperidin-4-yl]-1H-pyrazole-4-carbonyl}-3-(pyridin-3-yl)pyrrolidine]	< 30
COC1(c2c(C(=O)N3CCC(c4ccccc4C(F)(F)F)C3)cnn2C2CCN(C(=O)Nc3ccccc3F)CC2)CC1 (stereo not drawn) [Example 134, 1-{1-[1-(2-fluorophenylcarbamoyl)piperidin-4-yl]-5-(1-methoxycyclopropyl)-1H-pyrazole-4-carbonyl}-3-(2-trifluoromethylphenyl)pyrrolidine]	< 30
CC1(c2c(C(=O)N3CCC(c4ccccc4)(C(F)(F)F)C3)cnn2C2CCN(C(=O)Nc3ccccc3F)CC2)CC1 (stereo not drawn) [Example 135, 1-{1-[1-(2-fluorophenylcarbamoyl)piperidin-4-yl]-5-(1-methylcyclopropyl)-1H-pyrazole-4-carbonyl}-3-phenyl-3-trifluoromethylpyrrolidine]	< 30
O=C(Nc1ccc(F)cc1F)N1CCC(n2ncc(C(=O)N3CCC(c4ccccc4Cl)C3)c2C2CC2)CC1 (stereo not drawn) [Example 136, 3-(2-chlorophenyl)-1-{5-cyclopropyl-1-[1-(2,4-difluorophenylcarbamoyl)piperidin-4-yl]-1H-pyrazole-4-carbonyl}pyrrolidine]	< 30
O=C(Nc1ccccc1F)N1CCC(n2ncc(C(=O)N3CCC(c4cccnc4Cl)C3)c2C2CC2)CC1 (stereo not drawn) [Example 137, 3-(2-chloropyridin-3-yl)-1-{5-cyclopropyl-1-[1-(2-fluorophenylcarbamoyl)piperidin-4-yl]-1H-pyrazole-4-carbonyl}pyrrolidine]	< 30
CC1(C)C(c2c(C(=O)N3CCC(c4cccnc4)C3)cnn2C2CCN(C(=O)Nc3ccccc3F)CC2)C1(C)C (stereo not drawn) [Example 138, 1-{1-[1-(2-fluorophenylcarbamoyl)piperidin-4-yl]-5-(2,2,3,3-tetramethylcyclopropyl)-1H-pyrazole-4-carbonyl}-3-(pyridin-3-yl)pyrrolidine]	< 30
O=C(Nc1ccccc1F)N1CCC(n2ncc(C(=O)N3CCC(c4cccnc4)C3)c2C2CCCCC2)CC1 (stereo not drawn) [Example 139, 1-{5-cyclohexyl-1-[1-(2-fluorophenylcarbamoyl)piperidin-4-yl]-1H-pyrazole-4-carbonyl}-3-(pyridin-3-yl)pyrrolidine]	< 30
O=C(Nc1ccccc1F)N1CCC(n2ncc(C(=O)N3CCC(c4ccccc4OC(F)(F)F)C3)c2C2CC2)CC1 (stereo not drawn) [Example 140, 1-{5-cyclopropyl-1-[1-(2-fluorophenylcarbamoyl)piperidin-4-yl]-1H-pyrazole-4-carbonyl}-3-(2-trifluoromethoxyphenyl)pyrrolidine]	< 30
O=C(Nc1ccc(C(F)(F)F)cc1)N1CCC(n2ncc(C(=O)N3CCC(c4ccccc4C(F)(F)F)C3)c2C2CC2)CC1 (stereo not drawn) [Example 141, 1-{5-cyclopropyl-1-[1-(4-trifluoromethylphenylcarbamoyl)piperidin-4-yl]-1H-pyrazole-4-carbonyl}-3-(2-trifluoromethylphenyl)pyrrolidine]	< 30
CC(C)[C@@H](C(=O)O)N(C)C(=O)N1CCC(n2ncc(C(=O)N3CCC(c4ccccc4C(F)(F)F)C3)c2C2CC2)CC1 (stereo partly drawn) [Example 142, 1-(5-cyclopropyl-1-{1-[((S)-1-carboxy-2-methyl-propyl)methylcarbamoyl]piperidin-4-yl}-1H-pyrazole-4-carbonyl)-3-(2-trifluoromethylphenyl)pyrrolidine]	< 30
O=C(Nc1nccs1)N1CCC(n2ncc(C(=O)N3CCC(c4ccccc4C(F)(F)F)C3)c2C2CC2)CC1 (stereo not drawn) [Example 145, 1-{5-cyclopropyl-1-[1-(thiazol-2-ylcarbamoyl)piperidin-4-yl]-1H-pyrazole-4-carbonyl}-3-(2-trifluoromethylphenyl)pyrrolidine]	< 30
CC(C)ONC(=O)N1CCC(n2ncc(C(=O)N3CCC(c4ccccc4C(F)(F)F)C3)c2C2(C)CC2)CC1 (stereo not drawn) [Example 146, 1-{1-[1-(isopropoxycarbamoyl)piperidin-4-yl]-5-(1-methylcyclopropyl)-1H-pyrazole-4-carbonyl}-3-(2-trifluoromethylphenyl)pyrrolidine]	< 30
O=C(NCc1ccc(F)cc1)N1CCC(n2ncc(C(=O)N3CCC(c4ccccc4C(F)(F)F)C3)c2C2CC2)CC1 (stereo not drawn) [Example 147, 1-{5-cyclopropyl-1-[1-(4-fluorobenzylcarbamoyl)piperidin-4-yl]-1H-pyrazole-4-carbonyl}-3-(2-trifluoromethylphenyl)pyrrolidine]	< 30
